Experimental data published in PubChem BioAssay (NCI).
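Assay format: 96-well plates, 48-hour exposure. Definition used: TGI = concentration required for complete inhibition of growth.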

Key:
Assay in all cases: inhibition of tumour cell growth, NCI panel, 48 h
PC-3 prostate = tested on: PC-3 prostate
UACC-257 melanoma = tested on: UACC-257 melanoma
MDA-N = tested on: MDA-N
HCT-116 colon = tested on: HCT-116 colon
NCI-H23 lung = tested on: NCI-H23 lung
SW-620 colon = tested on: SW-620 colon
ACHN renal = tested on: ACHN renal
NCI-H226 lung = tested on: NCI-H226 lung
MDA-MB-435 = tested on: MDA-MB-435
COLO 205 colon = tested on: COLO 205 colon
CAKI-1 renal = tested on: CAKI-1 renal
HS 578T breast = tested on: HS 578T breast
NCI/ADR-RES ovarian = tested on: NCI/ADR-RES ovarian
MDA-MB-231 breast = tested on: MDA-MB-231 breast
K-562 leukemia = tested on: K-562 leukemia
KM12 colon = tested on: KM12 colon
HCC-2998 colon = tested on: HCC-2998 colon
786-0 renal = tested on: 786-0 renal

| Compound | TGI (PC-3 prostate) [µM] | TGI (UACC-257 melanoma) [µM] | TGI (MDA-N) [µM] | TGI (HCT-116 colon) [µM] | TGI (NCI-H23 lung) [µM] | TGI (SW-620 colon) [µM] | TGI (ACHN renal) [µM] | TGI (NCI-H226 lung) [µM] | TGI (MDA-MB-435) [µM] | TGI (COLO 205 colon) [µM] | TGI (CAKI-1 renal) [µM] | TGI (HS 578T breast) [µM] | TGI (NCI/ADR-RES ovarian) [µM] | TGI (MDA-MB-231 breast) [µM] | TGI (K-562 leukemia) [µM] | TGI (KM12 colon) [µM] | TGI (HCC-2998 colon) [µM] | TGI (786-0 renal) [µM] |
| --- | --- | --- | --- | --- | --- | --- | --- | --- | --- | --- | --- | --- | --- | --- | --- | --- | --- | --- |
| O=C(NCc1ccc(Cl)c(Cl)c1)c1nc2ccccc2nc1NCc1ccc(Cl)c(Cl)c1 | > 100 | > 100 | > 100 | > 100 | > 100 | > 100 | > 100 | > 100 | > 100 | > 100 | > 100 | > 100 | > 100 | > 100 | > 100 | > 100 | > 100 | > 100 |
| CC1SCCc2nc3ccccc3n21 (stereo not given) | > 100 | > 100 | > 100 | > 100 | > 100 | > 100 |  | > 100 | > 100 | > 100 | > 100 | > 100 | > 100 | > 100 | > 100 | > 100 | > 100 | > 100 |
| CCOP(=O)(OCC)/C(C#N)=C(\C)c1ccco1 | > 10 | > 10 | > 10 | > 10 | > 10 | > 10 | > 10 | > 10 | > 10 | > 10 | > 10 | > 10 | > 10 | > 10 | > 10 | > 10 | > 10 | > 10 |
| CCCCSC1=N/C(=C\c2ccccc2O)C(Cl)=N1 | > 100 | > 100 | > 100 | > 100 | > 100 | > 100 | > 100 | > 100 | > 100 | > 100 | > 100 | > 100 | > 100 | > 100 |  | > 100 | > 100 | > 100 |
| O=C1CSC(c2cccc(Oc3ccccc3)c2)N1c1cc(Cl)ccc1Cl (stereo not given) | 52.5 | 50.1 | 35.7 | 34.4 | 98.2 | 70.5 | 49.1 | 46.7 | 40.2 | 90.8 | 48.8 | 77.7 | 77.4 | 43.3 | 50.1 | 79.2 | 28.6 | 36.9 |
| CC(C)S1=C2C(=O)CC(C)(C)CC2=Nc2ccccc21 (stereo not given) | > 100 | > 100 | > 100 | > 100 | > 100 | > 100 | > 100 | > 100 | > 100 | > 100 | > 100 | > 100 | > 100 | > 100 | > 100 | > 100 | > 100 | > 100 |
| COc1ccc(-c2cc(=O)c3cc(OC)c(OC)cc3[nH]2)cc1OC | > 100 | > 100 | > 100 | > 100 | > 100 | > 100 | > 100 | > 100 | > 100 | > 100 | > 100 | > 100 | > 100 | > 100 | > 100 | > 100 | > 100 | > 100 |
| O=C(CCc1ccccc1)NCCc1ccc(O)c(O)c1 | > 61.2 | > 100 | 28.5 | > 66.7 | > 100 | > 100 | > 100 | > 100 | 29.4 | 58.5 | 29.4 | > 100 | > 100 | > 72.3 | 22.4 | > 94.4 | > 100 | > 82.2 |
| O=C(Cn1c(-c2ccccc2)cc2ccccc21)N1CCOCC1 | > 100 | > 100 | > 100 | > 100 | > 100 | > 100 | > 100 | > 100 | > 100 | > 100 | > 100 | > 100 | > 100 | > 100 | > 100 | > 100 | > 100 | > 100 |
| Nc1c(/C=C/c2cc3cc(C4=NCCN4)ccc3o2)[nH]c2cc(C3=NCCN3)ccc12 | > 100 | > 100 | > 100 | > 100 | > 100 | > 100 | > 100 | > 100 | > 100 | > 100 | > 100 | > 100 | > 100 | > 100 | > 100 | > 100 | > 100 | > 100 |
| CO[C@@H](c1ccccc1)[C@H](O)[C@@](O)(c1ccccc1)P(=O)(OC)OC | > 100 | > 100 | > 100 | > 100 | > 100 | > 100 | > 100 | > 100 | > 100 | > 100 | > 100 | > 100 | > 100 | > 100 | > 100 | > 100 |  | > 100 |
| Cc1ccc(C(=O)C2CC3(CCC2(O)c2ccc(C)cc2)CC(=O)Nc2ccccc2C3=O)cc1 (stereo not given) | > 100 | > 100 | > 100 | > 100 | > 100 | > 100 |  | > 100 | > 100 | > 100 | > 100 | > 100 | > 100 | > 100 |  |  | > 100 |  |
| O=C(C[N+]1(c2ccccc2)CCOCC1)c1ccccc1 | > 100 | > 100 | > 100 | > 100 | > 100 |  | > 100 | > 100 | > 100 |  | > 100 | > 100 | > 100 | > 100 | > 100 | > 100 | > 100 | > 100 |
| CCCSC1=N/C(=C\c2ccco2)C(=O)N1 | > 100 | > 100 | > 100 | > 100 | > 100 | > 100 | > 100 | > 100 | > 100 | > 100 | > 100 | > 100 | > 100 | > 100 |  | > 100 | > 100 | > 100 |
| Nc1nc2c(c(-c3ccc(F)cc3)n1)COC/C2=C\c1ccc(F)cc1 | > 100 | > 100 | > 100 |  | > 100 | > 100 | > 100 | > 100 | > 100 | > 100 | > 100 | > 100 | > 100 | > 100 | > 100 | 29 | > 100 |  |
| CNc1nc(OC)c2c(n1)[n+](C)cn2C | > 100 | > 100 | > 100 | > 100 | > 100 | > 100 | > 100 | > 100 | > 100 | > 100 | > 100 | > 100 | > 100 | > 100 | > 100 | > 100 |  | > 100 |
| CCCCCNC(=O)OC1CCn2c1nc1c2C(=O)C(C)=C(N2CC2)C1=O (stereo not given) | 2.39 | 3.22 | 2.88 | 4.33 | 6.2 |  | 2.81 | 4.26 | 3.13 | 2.82 | 2.9 | 6.24 | 10.4 | 5.31 | 7.75 | 3.48 | 1.37 | 1.75 |
| C[C@@H](c1ccccc1)N(CC#N)[C@H]1CCC[C@]1(O)/C=C/c1ccc2c(c1)OCO2 | > 25 | > 25 | > 25 | > 25 | > 25 |  | 8.04 | > 25 | > 25 | > 25 | > 25 | > 25 | > 25 | > 25 | > 25 | > 25 | > 25 | > 25 |
| N#Cc1c(N)n(-c2nc3ccccc3s2)c(=O)c2cc([N+](=O)[O-])ccc12 | > 52.1 | 69.3 | > 82.7 | > 41.9 | 36.5 | > 100 | > 72.8 | 52.6 | > 69.1 |  | 58.5 | 36.9 | 22.8 | 50.5 | 38.6 | > 51.3 | 41.2 | > 66.3 |
| COC(=O)C1CCC(=S)N1C(C)=O (stereo not given) | > 100 | > 100 | > 100 | > 100 | > 100 | > 100 | > 100 |  | > 100 | > 100 | > 100 | > 100 | > 100 | > 100 | > 100 | > 100 | > 100 | > 100 |
| Nc1nc2c(ccc3ccccc32)[nH]1 | > 10 |  | > 10 | > 10 | > 10 | > 10 | > 10 | > 10 | > 10 | > 10 | > 10 | > 10 | > 10 | > 10 | > 10 | > 10 | > 10 |  |
| Nc1nc(N)c2ncn(Cc3ccccc3)c2n1 | > 100 | > 100 | > 100 | > 100 | > 100 | > 100 | > 100 | > 100 | > 100 | > 100 | > 100 | > 100 | > 100 | > 100 |  | > 100 | > 100 | > 100 |
| COc1ccc2c(C=O)c3n(c(=O)c2c1OC)CCc1cc2c(cc1-3)OCO2 | > 100 | > 100 | > 100 | > 100 | > 100 | > 100 | > 100 | > 100 | > 100 | 82 | > 100 | > 100 | > 100 | > 100 |  | > 100 | 94.1 | > 100 |
| CCCCCCCCCCCCCCCC(=O)OCC(COP(=O)(O)OCCNC(=O)CCSSc1ccccn1)OC(=O)CCCCCCCCCCCCCCC (stereo not given) | > 100 | > 100 | > 100 | > 100 | > 100 | > 100 | > 100 | > 100 | > 100 | > 100 | > 100 | > 100 | > 100 | > 100 | > 100 | > 100 |  | > 100 |
| CC(=O)Oc1cc(OC(C)=O)c2c(c1C)CC[C@@H]1[C@@H]2CC[C@]2(C)[C@@H](OC(C)=O)CC[C@@H]12 | 29 | 32 | 32.9 | 29.2 | 38.8 | 32.9 | 31.2 | 34.2 | 31.3 |  | 52.1 | 53.2 | 57.6 | 30.5 | 89.2 | 31.5 | 36.6 | 34.8 |
| O=C1Cc2c([nH]c3c(Br)cccc23)-c2ccccc2N1 | > 100 | > 100 | > 100 |  | > 100 | > 100 | > 100 | > 100 | > 100 | > 100 |  | > 100 | > 100 | > 100 | 56.5 | > 100 | > 100 | > 100 |
| COc1cc(CC2C(=O)OCC2Cc2ccc(OC)c(OC)c2)ccc1O (stereo not given) | > 100 | > 100 | > 100 | > 100 | > 100 | > 100 | > 100 | > 100 | > 100 | > 100 | > 100 | > 100 | > 100 | > 100 | > 100 | > 100 |  | > 100 |
